Measured values taken from PMC5700161, “Structure of human immunoproteasome with a reversible and noncompetitive inhibitor that selectively inhibits activated lymphocytes” (Nature Communications, 2017).

Columns and labels:
proliferating T cells = experiment: Apoptosis and viability of proliferating vs non-proliferating T cells; format: cell-based, human; conditions: 4 days anti-CD3/anti-CD28, then 24 h; PKS21221 1 µM, BTZ 10 nM
Excerpt: (§1) As we observed selective cytotoxicity of PKS21221 in activated B cells and ASCs compared to non-activated B cells, we asked whether this is the case in proliferating T cells. We activated human T cells to proliferate with anti-CD3 and anti-CD28 in the presence or absence of PKS21221 or bortezomib. […] To examine whether these inhibitors are cytotoxic preferentially to proliferating cells, we triggered T-cell proliferation with anti-CD3/anti-CD28 for 4 days (in the absence of inhibitors), treated the cells with PKS21221 for the next 24 h and determined cell survival with Annexin V and 7-AAD (Fig. 6c, d).
(§2) Fig. 6 Effect of PKS21221 and bortezomib (BTZ) on T-cell proliferation. T cells were isolated from human PBMC and stimulated with anti-CD3 (1 µg per ml) and anti-CD28 (1 µg per ml) for 4 days. […] Apoptosis c and viability d were assessed in proliferating and non-proliferating population of T cells. […]
(§3) T cells were isolated from human PBMCs using Human T-cell Isolation kit (StemCell Technologies, Cat#17951). […] Cells were counted and loaded with 5 μM CellTrace Violet (Thermo Fisher) in phosphate buffered saline (PBS) for 10 min at 37 °C, followed by wash in 10% fetal calf serum (FCS)-supplemented RPMI 1640 media. […] The viability and apoptosis were assessed using Annexin V Apoptosis Detection Kit (BD Biosciences). […]

T cells = experiment: In vitro T-cell proliferation, anti-CD3/anti-CD28; format: cell-based, human; conditions: anti-CD3 and anti-CD28 stimulation
Excerpt: as §1, §2, §3

CD19+CD38+CD27+ ASCs = experiment: Survival and apoptosis of differentiated antibody-secreting cells (ASCs) from PBMC, Annexin V/7-AAD; format: cell-based, human; conditions: added for 12 hours on Day 5
Procedure: (§4) The immunoproteasome plays important roles in T cell differentiation and proliferation and dendritic cell activation and maturation[14],[20],[24]. However, its role in B cell differentiation is not well understood. […] Differentiated ASCs were then exposed to PKS21221 at indicated concentrations and cell survival was determined with Annexin V and 7-aminoactinomycin D (7-AAD) at three-time points (12-h, 24-h, and 48-h after treatment). […] In addition, the cytotoxicity of PKS21221 to different cell populations in PBMC was examined and compared to the cytotoxicity of bortezomib. PBMCs were incubated with PKS21221 or bortezomib, and the viability was assessed in T cells (CD3^+), B cells (CD19^+), monocytes (CD14^+) and dendritic cells (CD3^−CD19^−CD14^−CD16^−CD11c^+HLA-DR^+), respectively (Supplementary Fig. 13b–e).
PBMCs were cultured with or without IL-2/R848 for 5 days, followed by 12-h incubation with PKS21221 at different concentrations. a Representative flow cytometry plots of cells treated with IL-2 and R848 in the presence and absence of PKS21221. […] Annexin V^+7-AAD^− cells were referred as “Early apoptosis” population, and Annexin V^+7-AAD^+ cells were referred as “Dead” population. d Percentage of early apoptotic ASCs (left) and dead ASCs (right), after 12-h incubation with PKS21221.
Human peripheral blood samples were obtained from five different healthy volunteers (BWH Specimen Bank). Peripheral blood mononuclear cells (PBMCs) were isolated by density gradient centrifugation using Lymphoprep (StemCell Technologies). PBMCs were cultured at 1.5 × 10^6 cells per mL in RPMI 1640 media (Lonza), supplemented with 10% human serum (GemCell) (10% HS-RPMI), recombinant human IL-2 10 ng per mL (or 100 U per ml, BioLegend) and R848 1 µg per mL (Cayman Chemicals) for 5 days, at 37 °C, 5% CO2. PKS21221 in DMSO, or DMSO only for control, was added to the culture media on day 5, and cells were incubated for additional 12, 24, and 48 h.

[1] = system: resting CD3+ T cells and CD19+ B cells; experiment: Viability assay of human PBMC populations (Fixable Viability dye); format: cell-based; conditions: 10 nM bortezomib vs 1 μM PKS21221
Procedure: as §4
(1 picture or pasted object on this page, not shown here)

Q: With CC(C)C[C@H](NC(=O)[C@H](Cc1ccccc1)NC(=O)c1cnccn1)B(O)O [Bortezomib, bortezomib, reference compound] as the molecule, how does the “apoptosis and cell death, proliferating vs non-proliferating T cells” value (proliferating T cells) read?
A: The value was “induced apoptosis and cell death to a greater extent in proliferating T cells than in non-proliferating T cells”.

Q: And the “proliferation of T cells” value (T cells)?
A: The value was “inhibited proliferation of T cells in a dose-dependent manner”.

Q: And the “ASC percentage in ASC differentiating culture” value (CD19+CD38+CD27+ ASCs)?
A: The value was “decreased the percentage of”.

Q: And the “cytotoxicity to resting CD3+ T cells and CD19+ B cells” value [1]?
A: The value was “more cytotoxic at 10 nM than PKS2122 at 1 µM”.
